Measurements reported in patent US9963445B2, “Chemical compounds” (SYNGENTA PARTICIPATIONS AG, priority 2013, dated 2018).

test system: Setaria faberi; assay: Post-emergence herbicidal activity, glasshouse pot test; assay type: in vivo; set-up: key: 0 = no damage to plant, 5 = total damage to plant; settings: Application post-emergence, rate 1000 g/ha, evaluated after 13 days
Procedure, shortened: (§1)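 Damage rated 0 (none) to 5 (total) 13 days after spraying. Plants were treated post-emergence at 8 days after sowing, using an acetone/water (50:50) formulation with 0.5% Tween 20 diluted to an aqueous spray.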

Point of comparison: `COC1=C(C)C(O)N(c2cc(C(C)(F)F)c(-c3ccc(C)c(F)c3)nn2)C1=O` (stereo not drawn) [BI20], “SETFA herbicidal damage score” value 4. Against it:
- C=C(OCC)c1nnc(N2C(=O)C(OC)=C(C)C2O)cc1C(C)(F)F (stereo not drawn) [BI19] — the same, 4
- COC1=C(C)C(O)N(c2cc(C(C)(F)F)c(-c3cccnc3)nn2)C1=O (stereo not drawn) [BI21] — the same, 4
- COC1=C(C)C(O)N(c2cc(C(C)(F)F)c(Cl)nn2)C1=O (stereo not drawn) [BI22] — higher, 5

test system: Abutilon theophrasti; assay: as above; assay type: in vivo; set-up: key: 0 = no damage to plant, 5 = total damage to plant; settings: Application post-emergence, rate 1000 g/ha, evaluated after 13 days
Procedure, shortened: as §1

Point of comparison: `COC1=C(C)C(O)N(c2cc(C(C)(F)F)c(Cl)nn2)C1=O` (stereo not drawn) [BI22], “ABUTH herbicidal damage score” value 5. Against it:
- C=C(OCC)c1nnc(N2C(=O)C(OC)=C(C)C2O)cc1C(C)(F)F (stereo not drawn) [BI19] — the same, 5
- COC1=C(C)C(O)N(c2cc(C(C)(F)F)c(-c3ccc(C)c(F)c3)nn2)C1=O (stereo not drawn) [BI20] — the same, 5
- COC1=C(C)C(O)N(c2cc(C(C)(F)F)c(-c3cccnc3)nn2)C1=O (stereo not drawn) [BI21] — lower, 3

test system: Alopecurus myosuroides; assay: as above; assay type: in vivo; set-up: key: 0 = no damage to plant, 5 = total damage to plant; settings: Application post-emergence, rate 1000 g/ha, evaluated after 13 days
Procedure, shortened: as §1

Point of comparison: `COC1=C(C)C(O)N(c2cc(C(C)(F)F)c(-c3cccnc3)nn2)C1=O` (stereo not drawn) [BI21], “ALOMY herbicidal damage score” value 4. Against it:
- C=C(OCC)c1nnc(N2C(=O)C(OC)=C(C)C2O)cc1C(C)(F)F (stereo not drawn) [BI19] — the same, 4
- COC1=C(C)C(O)N(c2cc(C(C)(F)F)c(-c3ccc(C)c(F)c3)nn2)C1=O (stereo not drawn) [BI20] — lower, 2
- COC1=C(C)C(O)N(c2cc(C(C)(F)F)c(Cl)nn2)C1=O (stereo not drawn) [BI22] — higher, 5

test system: Echinochloa crus-galli; assay: as above; assay type: in vivo; set-up: key: 0 = no damage to plant, 5 = total damage to plant; settings: Application post-emergence, rate 1000 g/ha, evaluated after 13 days
Procedure, shortened: as §1

Point of comparison: `COC1=C(C)C(O)N(c2cc(C(C)(F)F)c(Cl)nn2)C1=O` (stereo not drawn) [BI22], “ECHCG herbicidal damage score” value 5. Against it:
- C=C(OCC)c1nnc(N2C(=O)C(OC)=C(C)C2O)cc1C(C)(F)F (stereo not drawn) [BI19] — the same, 5
- COC1=C(C)C(O)N(c2cc(C(C)(F)F)c(-c3ccc(C)c(F)c3)nn2)C1=O (stereo not drawn) [BI20] — lower, 3
- COC1=C(C)C(O)N(c2cc(C(C)(F)F)c(-c3cccnc3)nn2)C1=O (stereo not drawn) [BI21] — lower, 4

test system: zea mays; assay: as above; assay type: in vivo; set-up: key: 0 = no damage to plant, 5 = total damage to plant; settings: Application post-emergence, rate 1000 g/ha, evaluated after 13 days
Procedure, shortened: as §1

Point of comparison: `COC1=C(C)C(O)N(c2cc(C(C)(F)F)c(-c3cccnc3)nn2)C1=O` (stereo not drawn) [BI21], “ZEAMX herbicidal damage score” value 1. Against it:
- C=C(OCC)c1nnc(N2C(=O)C(OC)=C(C)C2O)cc1C(C)(F)F (stereo not drawn) [BI19] — higher, 3
- COC1=C(C)C(O)N(c2cc(C(C)(F)F)c(-c3ccc(C)c(F)c3)nn2)C1=O (stereo not drawn) [BI20] — the same, 1
- COC1=C(C)C(O)N(c2cc(C(C)(F)F)c(Cl)nn2)C1=O (stereo not drawn) [BI22] — higher, 3

test system: Amaranthus retroflexus; assay: as above; assay type: in vivo; set-up: key: 0 = no damage to plant, 5 = total damage to plant; settings: Application post-emergence, rate 1000 g/ha, evaluated after 13 days
Procedure, shortened: as §1

Point of comparison: `COC1=C(C)C(O)N(c2cc(C(C)(F)F)c(Cl)nn2)C1=O` (stereo not drawn) [BI22], “AMARE herbicidal damage score” value 5. Against it:
- C=C(OCC)c1nnc(N2C(=O)C(OC)=C(C)C2O)cc1C(C)(F)F (stereo not drawn) [BI19] — the same, 5
- COC1=C(C)C(O)N(c2cc(C(C)(F)F)c(-c3ccc(C)c(F)c3)nn2)C1=O (stereo not drawn) [BI20] — the same, 5
- COC1=C(C)C(O)N(c2cc(C(C)(F)F)c(-c3cccnc3)nn2)C1=O (stereo not drawn) [BI21] — the same, 5

test system: Setaria faberi; assay: Pre-emergence herbicidal activity, glasshouse pot test; assay type: in vivo; settings: pre-emergence spray, rate 1000 g/ha, evaluated after 13 days, scale 0-5
Procedure, shortened: (§2)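 Test species were sown in pots and, after one day under controlled glasshouse conditions, treated with an aqueous spray of the active ingredient in acetone/water containing 0.5% Tween 20. Evaluation followed 13 days later, scoring plant damage from 0 (none) to 5 (total).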

Point of comparison: `C=C(OCC)c1nnc(N2C(=O)C(OC)=C(C)C2O)cc1C(C)(F)F` (stereo not drawn) [BI19], “SETFA damage score, application pre-emergence” value 3. Against it:
- COC1=C(C)C(O)N(c2cc(C(C)(F)F)c(-c3ccc(C)c(F)c3)nn2)C1=O (stereo not drawn) [BI20] — lower, 1
- COC1=C(C)C(O)N(c2cc(C(C)(F)F)c(-c3cccnc3)nn2)C1=O (stereo not drawn) [BI21] — the same, 3
- COC1=C(C)C(O)N(c2cc(C(C)(F)F)c(Cl)nn2)C1=O (stereo not drawn) [BI22] — higher, 4

test system: Abutilon theophrasti; assay: as above; assay type: in vivo; settings: pre-emergence spray, rate 1000 g/ha, evaluated after 13 days, scale 0-5
Procedure, shortened: as §2

Point of comparison: `C=C(OCC)c1nnc(N2C(=O)C(OC)=C(C)C2O)cc1C(C)(F)F` (stereo not drawn) [BI19], “ABUTH damage score, application pre-emergence” value 5. Against it:
- COC1=C(C)C(O)N(c2cc(C(C)(F)F)c(-c3ccc(C)c(F)c3)nn2)C1=O (stereo not drawn) [BI20] — lower, 0
- COC1=C(C)C(O)N(c2cc(C(C)(F)F)c(-c3cccnc3)nn2)C1=O (stereo not drawn) [BI21] — lower, 2
- COC1=C(C)C(O)N(c2cc(C(C)(F)F)c(Cl)nn2)C1=O (stereo not drawn) [BI22] — lower, 4

test system: Alopecurus myosuroides; assay: as above; assay type: in vivo; settings: pre-emergence spray, rate 1000 g/ha, evaluated after 13 days, scale 0-5
Procedure, shortened: as §2

Point of comparison: `C=C(OCC)c1nnc(N2C(=O)C(OC)=C(C)C2O)cc1C(C)(F)F` (stereo not drawn) [BI19], “ALOMY damage score, application pre-emergence” value 3. Against it:
- COC1=C(C)C(O)N(c2cc(C(C)(F)F)c(-c3ccc(C)c(F)c3)nn2)C1=O (stereo not drawn) [BI20] — lower, 2
- COC1=C(C)C(O)N(c2cc(C(C)(F)F)c(-c3cccnc3)nn2)C1=O (stereo not drawn) [BI21] — lower, 2
- COC1=C(C)C(O)N(c2cc(C(C)(F)F)c(Cl)nn2)C1=O (stereo not drawn) [BI22] — higher, 4

test system: Echinochloa crus-galli; assay: as above; assay type: in vivo; settings: pre-emergence spray, rate 1000 g/ha, evaluated after 13 days, scale 0-5
Procedure, shortened: as §2

Point of comparison: `C=C(OCC)c1nnc(N2C(=O)C(OC)=C(C)C2O)cc1C(C)(F)F` (stereo not drawn) [BI19], “ECHCG damage score, application pre-emergence” value 5. Against it:
- COC1=C(C)C(O)N(c2cc(C(C)(F)F)c(-c3ccc(C)c(F)c3)nn2)C1=O (stereo not drawn) [BI20] — lower, 1
- COC1=C(C)C(O)N(c2cc(C(C)(F)F)c(-c3cccnc3)nn2)C1=O (stereo not drawn) [BI21] — lower, 2
- COC1=C(C)C(O)N(c2cc(C(C)(F)F)c(Cl)nn2)C1=O (stereo not drawn) [BI22] — the same, 5

test system: zea mays; assay: as above; assay type: in vivo; settings: pre-emergence spray, rate 1000 g/ha, evaluated after 13 days, scale 0-5
Procedure, shortened: as §2

Point of comparison: `COC1=C(C)C(O)N(c2cc(C(C)(F)F)c(Cl)nn2)C1=O` (stereo not drawn) [BI22], “ZEAMX damage score, application pre-emergence” value 3. Against it:
- C=C(OCC)c1nnc(N2C(=O)C(OC)=C(C)C2O)cc1C(C)(F)F (stereo not drawn) [BI19] — lower, 2
- COC1=C(C)C(O)N(c2cc(C(C)(F)F)c(-c3ccc(C)c(F)c3)nn2)C1=O (stereo not drawn) [BI20] — lower, 1
- COC1=C(C)C(O)N(c2cc(C(C)(F)F)c(-c3cccnc3)nn2)C1=O (stereo not drawn) [BI21] — lower, 0

test system: Amaranthus retroflexus; assay: as above; assay type: in vivo; settings: pre-emergence spray, rate 1000 g/ha, evaluated after 13 days, scale 0-5
Procedure, shortened: as §2

Point of comparison: `COC1=C(C)C(O)N(c2cc(C(C)(F)F)c(-c3cccnc3)nn2)C1=O` (stereo not drawn) [BI21], “AMARE damage score, application pre-emergence” value 2. Against it:
- C=C(OCC)c1nnc(N2C(=O)C(OC)=C(C)C2O)cc1C(C)(F)F (stereo not drawn) [BI19] — higher, 5
- COC1=C(C)C(O)N(c2cc(C(C)(F)F)c(-c3ccc(C)c(F)c3)nn2)C1=O (stereo not drawn) [BI20] — higher, 3
- COC1=C(C)C(O)N(c2cc(C(C)(F)F)c(Cl)nn2)C1=O (stereo not drawn) [BI22] — higher, 5
